Measured values reported in ChEMBL document CHEMBL5120845, “Design and synthesis of novel macrolones bridged with linkers from 11,12-positions of macrolides” (Bioorg Med Chem Lett, 2022).
≈ marks a conversion by molar mass, not a printed value.

How the values were obtained:
Format in all cases: functional
[1] = system: Streptococcus pneumoniae; experiment: Antibacterial activity against Streptococcus pneumoniae ATCC 49619 by microbroth dilution method
[2] = system: Haemophilus influenzae; experiment: Antibacterial activity against Haemophilus influenzae ATCC 49247 by microbroth dilution method
[3] = system: Staphylococcus aureus; experiment: Antibacterial activity against Staphylococcus aureus 15B196 by microbroth dilution method
[4] = system: Streptococcus pyogenes; experiment: Antibacterial activity against Streptococcus pyogenes 12-206 by microbroth dilution method
[5] = system: Streptococcus pneumoniae; experiment: Antibacterial activity against Streptococcus pneumoniae PU09 by microbroth dilution method
[6] = system: Staphylococcus aureus; experiment: Antibacterial activity against Staphylococcus aureus PU32 by microbroth dilution method
[7] = system: Streptococcus pneumoniae; experiment: Antibacterial activity against Streptococcus pneumoniae 07P390 by microbroth dilution method

Structure (SMILES) | MIC [1] | MIC [2] | MIC [3] | MIC [4] | MIC [5] | MIC [6] | MIC [7]
CC[C@H]1OC(=O)[C@H](C)C(=O)[C@H](C)[C@@H](O[C@@H]2O[C@H](C)C[C@H](N(C)C)[C@H]2O)[C@](C)(OC)C[C@@H](C)C(=O)[C@H](C)[C@H]2N(CCC#Cc3ccc4c(=O)c(C(N)=O)cn(C5CC5)c4c3)C(=O)O[C@]12C | 0.06 µg/mL (≈ 0.0673 µM) | 128 µg/mL (≈ 144 µM) | 512 µg/mL (≈ 575 µM) | 32 µg/mL (≈ 35.9 µM) | 0.12 µg/mL (≈ 0.135 µM) | 1 µg/mL (≈ 1.12 µM) | 128 µg/mL (≈ 144 µM)
CC[C@H]1OC(=O)[C@H](C)C(=O)[C@H](C)[C@@H](O[C@@H]2O[C@H](C)C[C@H](N(C)C)[C@H]2O)[C@](C)(OC)C[C@@H](C)C(=O)[C@H](C)[C@H]2N(CCCCc3ccc4c(=O)c(C(N)=O)cn(C5CC5)c4c3)C(=O)O[C@]12C | 0.03 µg/mL (≈ 0.0335 µM) | 32 µg/mL (≈ 35.8 µM) | 512 µg/mL (≈ 572 µM) | 4 µg/mL (≈ 4.47 µM) | 0.25 µg/mL (≈ 0.279 µM) | 1 µg/mL (≈ 1.12 µM) | 32 µg/mL (≈ 35.8 µM)
O=C(O)c1cn(C2CC2)c2cc(N3CCNCC3)c(F)cc2c1=O [CIPROFLOXACIN] | 1 µg/mL (≈ 3.02 µM) | 0.03 µg/mL (≈ 0.0905 µM) | 1 µg/mL (≈ 3.02 µM) | 0.25 µg/mL (≈ 0.754 µM) | 2 µg/mL (≈ 6.04 µM) | 32 µg/mL (≈ 96.6 µM) | 2 µg/mL (≈ 6.04 µM)
CC[C@H]1OC(=O)[C@H](C)C(=O)[C@H](C)[C@@H](O[C@@H]2O[C@H](C)C[C@H](N(C)C)[C@H]2O)[C@](C)(OC)C[C@@H](C)C(=O)[C@H](C)[C@H]2N(CCCCCCC#Cc3ccc4c(=O)c(C(=O)O)cn(C5CC5)c4c3)C(=O)O[C@]12C | ≤ 0.008 µg/mL | 16 µg/mL (≈ 16.9 µM) | 32 µg/mL (≈ 33.7 µM) | 1 µg/mL (≈ 1.05 µM) | 1 µg/mL (≈ 1.05 µM) | 4 µg/mL (≈ 4.22 µM) | 8 µg/mL (≈ 8.44 µM)
CC[C@H]1OC(=O)[C@H](C)C(=O)[C@H](C)[C@@H](O[C@@H]2O[C@H](C)C[C@H](N(C)C)[C@H]2O)[C@](C)(OC)C[C@@H](C)C(=O)[C@H](C)[C@H]2N(CCCC#Cc3ccc4c(=O)c(C(N)=O)cn(C5CC5)c4c3)C(=O)O[C@]12C | 0.03 µg/mL (≈ 0.0331 µM) | 128 µg/mL (≈ 141 µM) | 512 µg/mL (≈ 566 µM) | 4 µg/mL (≈ 4.42 µM) | 2 µg/mL (≈ 2.21 µM) | 4 µg/mL (≈ 4.42 µM) | 128 µg/mL (≈ 141 µM)

More lines, now with the values ahead:

MIC [1] | MIC [2] | MIC [3] | MIC [4] | MIC [5] | MIC [6] | MIC [7] | Structure (SMILES)
0.03 µg/mL (≈ 0.0331 µM) | 32 µg/mL (≈ 35.3 µM) | 256 µg/mL (≈ 283 µM) | 2 µg/mL (≈ 2.21 µM) | 1 µg/mL (≈ 1.1 µM) | 4 µg/mL (≈ 4.41 µM) | 2 µg/mL (≈ 2.21 µM) | CC[C@H]1OC(=O)[C@H](C)C(=O)[C@H](C)[C@@H](O[C@@H]2O[C@H](C)C[C@H](N(C)C)[C@H]2O)[C@](C)(OC)C[C@@H](C)C(=O)[C@H](C)[C@H]2N(CCCC#Cc3ccc4c(=O)c(C(=O)O)cn(C5CC5)c4c3)C(=O)O[C@]12C
0.03 µg/mL (≈ 0.0309 µM) | 32 µg/mL (≈ 33 µM) | 256 µg/mL (≈ 264 µM) | 1 µg/mL (≈ 1.03 µM) | 2 µg/mL (≈ 2.06 µM) | 4 µg/mL (≈ 4.12 µM) | 2 µg/mL (≈ 2.06 µM) | CC[C@H]1OC(=O)[C@H](C)C(=O)[C@H](C)[C@@H](O[C@@H]2O[C@H](C)C[C@H](N(C)C)[C@H]2O)[C@](C)(OC)C[C@@H](C)C(=O)[C@H](C)[C@H]2N(CCN3CCN(c4cc5c(cc4F)c(=O)c(C(=O)O)cn5C4CC4)CC3)C(=O)O[C@]12C
≤ 0.008 µg/mL | 4 µg/mL (≈ 4.22 µM) | 128 µg/mL (≈ 135 µM) | 1 µg/mL (≈ 1.05 µM) | 1 µg/mL (≈ 1.05 µM) | 4 µg/mL (≈ 4.22 µM) | 16 µg/mL (≈ 16.9 µM) | CC[C@H]1OC(=O)[C@H](C)C(=O)[C@H](C)[C@@H](O[C@@H]2O[C@H](C)C[C@H](N(C)C)[C@H]2O)[C@](C)(OC)C[C@@H](C)C(=O)[C@H](C)[C@H]2N(CCCCCCC#Cc3ccc4c(c3)c(=O)c(C(=O)O)cn4C3CC3)C(=O)O[C@]12C
0.016 µg/mL (≈ 0.0179 µM) | 4 µg/mL (≈ 4.48 µM) | 16 µg/mL (≈ 17.9 µM) | 1 µg/mL (≈ 1.12 µM) | 0.5 µg/mL (≈ 0.561 µM) | 0.25 µg/mL (≈ 0.28 µM) | 2 µg/mL (≈ 2.24 µM) | CC[C@H]1OC(=O)[C@H](C)C(=O)[C@H](C)[C@@H](O[C@@H]2O[C@H](C)C[C@H](N(C)C)[C@H]2O)[C@](C)(OC)C[C@@H](C)C(=O)[C@H](C)[C@H]2N(CCC#Cc3ccc4c(=O)c(C(=O)O)cn(C5CC5)c4c3)C(=O)O[C@]12C
≤ 0.008 µg/mL | 16 µg/mL (≈ 18 µM) | 32 µg/mL (≈ 35.9 µM) | 1 µg/mL (≈ 1.12 µM) | 1 µg/mL (≈ 1.12 µM) | 1 µg/mL (≈ 1.12 µM) | 8 µg/mL (≈ 8.98 µM) | CC[C@H]1OC(=O)[C@H](C)C(=O)[C@H](C)[C@@H](O[C@@H]2O[C@H](C)C[C@H](N(C)C)[C@H]2O)[C@](C)(OC)C[C@@H](C)C(=O)[C@H](C)[C@H]2N(CCC#Cc3ccc4c(c3)c(=O)c(C(N)=O)cn4C3CC3)C(=O)O[C@]12C
0.016 µg/mL (≈ 0.0171 µM) | 64 µg/mL (≈ 68.6 µM) | 128 µg/mL (≈ 137 µM) | 2 µg/mL (≈ 2.14 µM) | 1 µg/mL (≈ 1.07 µM) | 8 µg/mL (≈ 8.57 µM) | 4 µg/mL (≈ 4.29 µM) | CC[C@H]1OC(=O)[C@H](C)C(=O)[C@H](C)[C@@H](O[C@@H]2O[C@H](C)C[C@H](N(C)C)[C@H]2O)[C@](C)(OC)C[C@@H](C)C(=O)[C@H](C)[C@H]2N(CCCCCC#Cc3ccc4c(c3)c(=O)c(C(N)=O)cn4C3CC3)C(=O)O[C@]12C
